Results from PMC10499915 (Scientific Reports, 2023).
In brackets after ≈: the same amount, converted by molar mass. Entries after “also recorded” stand apart in the source; their conditions may differ. Read-outs that look alike come from different tables or passages of the source. Square brackets hold non-standard residues; d marks the D form. Peptide text beside a SMILES is read from it. * marks the point of attachment. Lauroyl = CCCCCCCCCCCC(=O)*; Octanoyl = CCCCCCCC(=O)*; Aun = NCCCCCCCCCCC(=O)O

Legend:
P.aeruginosa ATCC 27853 = format: cell-based, Pseudomonas aeruginosa; settings: ATCC 27853, 18 h
Protocol: (§1) The bacterial strains used were Escherichia coli ATCC 25922, Staphylococcus aureus ATCC 25923, Klebsiella pneumoniae ATCC 700603, Acinetobacter baumannii ATCC 19606, Pseudomonas aeruginosa ATCC 27853 and Staphylococcus epidermidis ATCC 12228. The reference bacterial strains used were purchased from American Type Culture Collection (ATCC) (Manassas, Virginia, USA). They were grown overnight (o/n) at 37 °C in complete Müller-Hinton broth (MHB, Difco) medium with shaking (130 rpm). The day after, the overnight bacterial cultures were diluted in fresh MHB (300 μL o/n culture in 10 mL) and incubated at 37 °C with shaking (130 rpm) for approximately 2 h (mid-log phase) until reaching an optical density (OD) at 600 nm (OD600) ≈ 0.3.
(§2) Peptides diluted in MHB to a concentration of 128 μM were added to the first column of wells of a 96-well round-bottom microtiter plate (Sarstedt, Milan, Italy) and serially diluted (1:2) in a final volume of 50 μL MHB was added to the next wells. Then, a mid-log bacterial cultures (OD 600≈ 0.3) were diluted to 5 × 10^5 colony-forming units (CFU)/mL in MHB and 50 μL of this bacterial suspension was added to each well. In this way, the final bacterial concentration was reduced to 2.5 × 10^5 CFU/mL and the peptide concentration in the wells was also halved in a final volume of 100 μL (final bacteria load was 2.5 × 10^4 CFU/well). The same amount of untreated bacteria in MHB was used as a control for bacterial growth. […] MIC was determined by visual inspection at the end of incubation as the first clear well. Data are reported as moda of independent experiments repeated three times or four times in case of uncertain values.

A.baumanni ATCC 19606 = format: cell-based, Acinetobacter baumannii; settings: ATCC 19606, 18 h
Protocol: as §1, §2

S.epidermidis ATCC 12228 = format: cell-based, Staphylococcus epidermidis; settings: ATCC 12228, 18 h
Protocol: as §1, §2

K.pneumoniae ATCC 700603 = format: cell-based, Klebsiella pneumoniae; settings: ATCC 700603, 18 h
Protocol: as §1, §2

[1] = 4h and 24 h incubation, different concentrations
E.coli ATCC 25922 = format: cell-based, Escherichia coli; settings: ATCC 25922, 18 h
Protocol: as §1, §2

[2] = Hydrophobicity by RP-HPLC retention time; format: physicochemical; settings: for Retention time tR: used as measure of hydrophobicity, RP-HPLC, Phenomenex Luna C18 (100 Å, 5µ), linear gradient 5%B to 95%B over 30 min, A 0.1% TFA in 9:1 water:acetonitrile, B 0.1% TFA in 9:1 acetonitrile:water, 1 mL/min, peptide 0.5 mg/mL in MeOH, UV 215 and 280 nm; for Hydrophobicity ΔtR: ΔtR = tR(x)−tR(a), relative to compound a, RP-HPLC C18, 5%–95%B over 30 min
Protocol: Peptide hydrophobicity was calculated as difference in retention times between peptide analogues b–h and peptide a. Each peptide was dissolved in MeOH to a concentration of 0.5 mg/mL and then subjected to RP-HPLC on an analytical Phenomenex Luna C18 (100 Å, 5µ) column using 0.1% TFA in 9:1 water:acetonitrile as solvent A, and 0.1% TFA in 9:1 acetonitrile:water as solvent B. The peptides were eluted using a linear gradient as follows: 5%B to 95%B over 30 min. The flow rate was 1 mL/min and the absorbance was measured at 215 nm and 280 nm. The retention time was recorded for each peptide.

[3] = system: ram red blood cells (RBCs); settings: 4% v/v ram RBCs in PBS, 1 h, 37 °C, absorbance 540 nm, 100% = 1% Triton X-100; all concentrations tested; n = 3
Protocol: The lytic potential towards eukaryotic cell membranes was assessed by measuring the release of haemoglobin from commercial ram red blood cells (RBCs) (Microbiol s.r.l., Cagliari, Italy) after exposure to the peptides. First, erythrocytes were isolated by centrifugation, washed with PBS and then suspended at 8% (v/v) in PBS. Secondly, 100 µL erythrocytes suspension was added into each well of a 96-well microplate. Then, 100 µL peptide solution was added to each well at different concentrations (the final concentration of erythrocytes suspension was 4% v/v), and the plates were incubated for 1 h at 37 °C and centrifuged at 1000 g for 10 min. Finally, 100 µL aliquots of supernatant were transferred to fresh 96-well microplate, and the release of haemoglobin was monitored by measuring the absorbance at 540 nm with Tecan microplate reader (Tecan Trading AG, Switzerland). 0% and 100% haemolysis were determined in PBS and 1% Triton X-100, respectively.

HaCaT cell line = settings: 24 h
Protocol: Cytotoxicity was measured by the MTT assay on human immortalized epidermal keratinocyte HaCaT cell line (DKFZ, Eppelheim, Germany). The HaCaT cells were grown in high-glucose Dulbecco’s modified Eagle’s medium (DMEM) (Sigma-Aldrich, Milan, Italy). DMEM medium was supplemented with 10% foetal bovine serum (FBS; Sigma, Milan, Italy), 2 mM glutamine (Sigma, Milan, Italy), 100 U/mL penicillin (Sigma, Milan, Italy) and 100 µg/mL streptomycin (Sigma, Milan, Italy). The cells were maintained at 37 °C in the presence of 5% CO2 and in a humidified incubator.
Cells were counted in a Burker-Türk chamber to prepare a suspension of 2 × 10^5 cells/ml in DMEM High Glucose Complete Medium (Sigma-Aldrich, Milan, Italy). 100 μL of this suspension was added to the wells of a 96-well flat-bottom transparent microtiter plate (Euroclone, Milan, Italy) specially treated for tissue culture. The plate was incubated for 24 h at 37 °C and 5% CO2 to allow the cells in each well to reach a semiconfluent state. The following day, serial dilutions (1:2) of the peptides, starting with 64 μM, were prepared in DMEM medium, and 100 μL of these solutions were used to replace the medium in the plate with HaCaT cells. The same amount of untreated DMEM high-glucose medium was used as a cell growth control. DMEM high-glucose complete medium (100 μL) was used as a negative control to check the sterility of the medium. The plate was sealed with Parafilm to minimize evaporation and incubated at 37 °C and 5% CO2 for 20 h. Then, 25 μL MTT (Sigma-Aldrich, Milan, Italy) dissolved in phosphate-buffered saline (PBS) was added to each well to a final concentration of 1 mg/mL MTT, and the plate was incubated for 4 h in the dark at 37 °C and 5% CO2.
At the end of incubation, 100 μL 10% (w/v) Igepal (Sigma-Aldrich, Milan, Italy) in 10 mM HCl was added to each well, and the plate was incubated overnight in the dark at 37 °C and 5% CO2. The absorbance of MTT at 570 nm was measured using a Nanoquant Infinite-M200Pro plate reader (Tecan, Männedorf, Switzerland). Student’s t-test was performed for all samples.

S.aureus ATCC 25923 = format: cell-based, Staphylococcus aureus
Protocol: as §1, §2

chymotrypsin = chymotrypsin (Sigma–Aldrich), 1.25 µg of enzyme in 150 µl buffer; Tris·HCl 50 mM, pH 7.8; settings: 37 °C, up to 24 h
[4] = system: E. coli, A. baumannii, K. pneumoniae, P. aeruginosa, and S. epidermidis strains; format: cell-based; settings: 18 h
Protocol: as §1, §2

Compound: CCCCCCCC(=O)N[C@@H](CCCCN)C(=O)N[C@@H](CCCNC(=N)N)C(=O)N[C@@H](CC(C)C)C(=O)N[C@@H](CCCCN)C(=O)N[C@@H](CCCCN)C(=O)N[C@H](C(=O)NCC(=O)N[C@@H](CCCCN)C(=O)N[C@H](C(=O)N[C@@H](CC(C)C)C(=O)N[C@@H](CCCCN)C(=O)N[C@@H](Cc1c[nH]c2ccccc12)C(=O)N[C@H](C(=O)N[C@@H](C)C(=O)N[C@@H](CCCCN)C(=O)N[C@H](C(=O)N[C@H](C(=O)NCC(=O)N[C@@H](CO)C(=O)N[C@H](C(N)=O)[C@@H](C)CC)C(C)C)[C@@H](C)CC)[C@@H](C)CC)C(C)C)[C@@H](C)CC [c] (Octanoyl-KRLKKIGKVLKWIAKIVGSI-NH2)
- MIC (P.aeruginosa ATCC 27853): 32 µM (≈ 76.9 µg/mL)
- MIC (A.baumanni ATCC 19606): 8 µM (≈ 19.2 µg/mL)
- MIC (S.epidermidis ATCC 12228): 8 µM (≈ 19.2 µg/mL)
- MIC (K.pneumoniae ATCC 700603): 16 µM (≈ 38.5 µg/mL)
- solubility in Müller-Hinton broth [1]: low solubility
- MIC (E.coli ATCC 25922): 16 µM (≈ 38.5 µg/mL)
- Retention time tR [2]: 22.3 min
- Hydrophobicity ΔtR [2]: 9.1
- membranolytic (haemolytic) effect on erythrocytes [3]: significant lytic effect
- HC50 (cytotoxicity on HaCaT cells) (HaCaT cell line): < 32 µM
- MIC (S.aureus ATCC 25923; ATCC 25923, 18 h): 16 µM (≈ 38.5 µg/mL)

Compound: CCCCCCCCCCCC(=O)N[C@@H](CCCCN)C(=O)N[C@@H](CCCNC(=N)N)C(=O)N[C@@H](CC(C)C)C(=O)N[C@@H](CCCCN)C(=O)N[C@@H](CCCCN)C(=O)N[C@H](C(=O)NCC(=O)N[C@@H](CCCCN)C(=O)N[C@H](C(=O)N[C@@H](CC(C)C)C(=O)N[C@@H](CCCCN)C(=O)N[C@@H](Cc1c[nH]c2ccccc12)C(=O)N[C@H](C(=O)N[C@@H](C)C(=O)N[C@@H](CCCCN)C(=O)N[C@H](C(=O)N[C@H](C(=O)NCC(=O)N[C@@H](CO)C(=O)N[C@H](C(N)=O)[C@@H](C)CC)C(C)C)[C@@H](C)CC)[C@@H](C)CC)C(C)C)[C@@H](C)CC [d] (Lauroyl-KRLKKIGKVLKWIAKIVGSI-NH2)
- MIC (P.aeruginosa ATCC 27853): >32 µM
- MIC (A.baumanni ATCC 19606): 16 µM (≈ 39.4 µg/mL)
- MIC (S.epidermidis ATCC 12228): 32 µM (≈ 78.7 µg/mL)
- MIC (K.pneumoniae ATCC 700603): 32 µM (≈ 78.7 µg/mL)
- solubility in Müller-Hinton broth [1]: low solubility
- MIC (E.coli ATCC 25922): >32 µM
- Retention time tR [2]: 22.8 min
- Hydrophobicity ΔtR [2]: 9.6
- membranolytic (haemolytic) effect on erythrocytes [3]: significant lytic effect
- HC50 (cytotoxicity on HaCaT cells) (HaCaT cell line): < 32 µM
- MIC (S.aureus ATCC 25923; ATCC 25923, 18 h): 32 µM (≈ 78.7 µg/mL)

Compound: CC[C@H](C)[C@H](NC(=O)[C@H](CO)NC(=O)CNC(=O)[C@@H](NC(=O)[C@@H](NC(=O)[C@H](CCCCN)NC(=O)[C@H](C)NC(=O)[C@@H](NC(=O)[C@H](Cc1c[nH]c2ccccc12)NC(=O)[C@H](CCCCN)NC(=O)[C@H](CC(C)C)NC(=O)[C@@H](NC(=O)[C@H](CCCCN)NC(=O)CNC(=O)[C@@H](NC(=O)[C@H](CCCCN)NC(=O)[C@H](CCCCN)NC(=O)[C@H](CC(C)C)NC(=O)[C@H](CCCNC(=N)N)NC(=O)[C@H](CCCCN)NC(C)=O)[C@@H](C)CC)C(C)C)[C@@H](C)CC)[C@@H](C)CC)C(C)C)C(=O)NCCCCCCCCCCC(N)=O [f] (Ac-KRLKKIGKVLKWIAKIVGSI[Aun]-NH2)
- MIC (P.aeruginosa ATCC 27853): 16 µM (≈ 40.1 µg/mL)
- MIC (A.baumanni ATCC 19606): 4 µM (≈ 10 µg/mL)
- MIC (S.epidermidis ATCC 12228): 8 µM (≈ 20 µg/mL)
- MIC (K.pneumoniae ATCC 700603): 16 µM (≈ 40.1 µg/mL)
- MIC (E.coli ATCC 25922): 8 µM (≈ 20 µg/mL)
- membranolytic (haemolytic) effect on erythrocytes [3]: significant lytic effect
- HC50 (cytotoxicity on HaCaT cells) (HaCaT cell line): < 32 µM
- MIC (S.aureus ATCC 25923; ATCC 25923, 18 h): 8 µM (≈ 20 µg/mL)

Compound: Ac-KRLKKIGKVLKWI-NH2
- cleaved bond (chymotrypsin): Leu21-Lys22, first_seen, within a 30-min incubation

Compound: Ac-KRLKKIGKVLKWIAKIVGSI-NH2
- cleaved bond (chymotrypsin): Leu21-Lys22, first_seen, within a 30-min incubation; also recorded: Leu14-Lys15, after longer incubation times; also recorded: Trp23-Ile24, after longer incubation times

Compound: Ac-KRLKKIGKVLKWIAKIVGSI[Aun]-NH2 (SMILES CC[C@H](C)[C@H](NC(=O)[C@H](CO)NC(=O)CNC(=O)[C@@H](NC(=O)[C@@H](NC(=O)[C@H](CCCCN)NC(=O)[C@H](C)NC(=O)[C@@H](NC(=O)[C@H](Cc1c[nH]c2ccccc12)NC(=O)[C@H](CCCCN)NC(=O)[C@H](CC(C)C)NC(=O)[C@@H](NC(=O)[C@H](CCCCN)NC(=O)CNC(=O)[C@@H](NC(=O)[C@H](CCCCN)NC(=O)[C@H](CCCCN)NC(=O)[C@H](CC(C)C)NC(=O)[C@H](CCCNC(=N)N)NC(=O)[C@H](CCCCN)NC(C)=O)[C@@H](C)CC)C(C)C)[C@@H](C)CC)[C@@H](C)CC)C(C)C)C(=O)NCCCCCCCCCCC(N)=O)
- cleaved bond (chymotrypsin): Leu21-Lys22, first_seen, within a 30-min incubation; also recorded: Trp23-Ile24, first_seen, within a 30-min incubation; also recorded: Leu14-Lys15, after longer incubation times

Compound: Ac-KRLKKIGKVLKWIPPIVGSI-NH2
- cleaved bond (chymotrypsin): Leu21-Lys22, first_seen, within a 30-min incubation

Compound: Ac-KRLKKIGKVLKWIPPIVGSI-NH2 [a]
- MIC, span over all tested bacterial strains except S. aureus [4]: 1 to 4 µM
- MIC (P.aeruginosa ATCC 27853): 4 µM
- MIC (A.baumanni ATCC 19606): 1 µM
- MIC (S.epidermidis ATCC 12228): 2 µM
- MIC (K.pneumoniae ATCC 700603): 1 µM
- MIC (E.coli ATCC 25922): 2 µM
- Retention time tR [2]: 13.2 min
- Hydrophobicity ΔtR [2]: 0
- MIC (S.aureus ATCC 25923; S.aureus ATCC 25923, Mueller–Hinton broth, 18 h, 37 °C, 2.5 × 10^5 CFU/mL, visual, mode of three independent tests): 64 µM

Compound: Ac-KRLKKIGKVUKWI-NH2
- cleaved bond (chymotrypsin): Leu14-Lys15, within a 30-min incubation; also recorded: Trp23-Ile24, after longer incubation times

Compound: Lau-KRLKKIGKVLKWIAKIVGSI-NH2
- cleaved bond (chymotrypsin): Trp23-Ile24, after longer incubation times; also recorded: Leu21-Lys22, first_seen, within a 30-min incubation; also recorded: Leu14-Lys15, after longer incubation times

Compound: Oct-KRLKKIGKVLKWIAKIVGSI-NH2
- cleaved bond (chymotrypsin): Leu21-Lys22, first_seen, within a 30-min incubation; also recorded: Trp23-Ile24, first_seen, within a 30-min incubation; also recorded: Leu14-Lys15, within a 30-min incubation

Compound: Pal-KRLKKIGKVLKWIAKIVGSI-NH2
- cleaved bond (chymotrypsin): Leu14-Lys15, after longer incubation times; also recorded: Leu21-Lys22, after longer incubation times; also recorded: Trp23-Ile24, after longer incubation times
